The results in this text go back to patent US11401255B2, “Small molecule activators of Parkin enzyme function” (Mayo Foundation for Medical Education and Research, priority 2016, dated 2022).

Read-outs that look alike come from different tables or passages of the source.

Data set [1] has as its target hERG channel (Homo sapiens (Human), UniProt Q12809). An excerpt:
Fluorescence polarization (FP) readout technology is based on the observation that when a small fluorescent molecule (the tracer) is excited by the polarized light, the emitted light is largely depolarized because of the rapid rotation of the molecule in the solution during its fluorescence lifetime. The hERG predictor assay provides valuable information about the possible binding of test compounds to the potassium channel and potential QT prolongation on […].
All experiments were performed using the Predictor™ hERG Fluorescence Polarization Assay in accordance with the manufacturer's protocol PV5365 (Invitrogen, Carlsbad, Calif.).
The hERG reaction was performed by incubating the tracer and membranes with hERG channel for 2-4 hours in the solution. The fluorescence polarization was maximal when nothing interfered with the reaction of the tracer and hERG membranes (minimal tracer rotation). But when a tested compound competed with the tracer for the hERG channel, the polarization of emitted light lowered due to the ability of free unbound tracer to rotate rapidly in the solution.
All test points for the compounds were performed in quadruplicates. Three dilutions of the tested compounds were assessed—1 μM, 5 μM and 20 μM.

Data set [2] relates to TA 98. The data set can be described thus: Ames Test, strain TA 98. An excerpt:
(§1) The test used amino acid-dependent strains of Salmonella typhimurium and Escherichia coli to detect point mutations which involved substitution, addition or deletion of one or a few DNA base pairs. Point mutations were introduced in the histidine (Salmonella typhimurium) or the tryptophan (Escherichia coli) operon, making the tester strains incapable of producing these amino acids. The test detected mutations that revert the mutations present in the bacteria, restoring the functional capability to synthesize histidine or tryptophan. The revertant bacteria were detected by the ability to grow in the absence of the amino acid required by the parent test strain. A mutagenic potential of a tested compound was assessed by exposing these bacterial strains to different concentrations of the compounds and estimating number of revertant colonies grown in the absence (trace quantities) of the amino acid.
(§2) DMSO was used as the negative control.
(§3) For each experiment, tester strain cultures were grown overnight in Oxoid nutrient broth #2 at 37° C. with shaking at 235 rpm to a density of 1-2×10^9 colony forming units/mL (OD540˜2).
(§4) The tester strain (10 μL of night culture) was mixed with the test agent (10 µL of the DMSO stock) and GM liquid medium (30 μL). The obtained mixture was incubated at room temperature for 5 min in a sterile 1.5 mL tube. Then, to the tube was added 200 μL of molten top agar stored at 44° C. to prevent solidifying. After mixing with a pipette, the mixture was poured onto the surface of a GM agar plate (2.0 mL of GM agar per plate). After solidifying the top agar, the plate was inverted and incubated at 37° C. for 48 hours. Then, results were expressed as number of revertant colonies per plate.

The subject of data set [3] is HeLa EGFP-Parkin cells. In words: Co-recruitment of autophagy receptors to mitochondria (immunofluorescence). It is filed as cell-based, human. The procedure: Cells were grown on poly-D-lysine coated glass coverslips. After treatments, cells were fixed in 4% paraformaldehyde and permeabilized using 1% Triton X-100, for each 10 min. Cells were blocked in 10% goat serum. Primary and secondary antibodies were diluted in 1% BSA/PBS and each incubated for 1 h at RT. Primary antibodies used: DNA (mouse, 1:250, Progen, AC-30-10), NBR1 (mouse, 1:100, Abnova H00004077-M01), NDP52 (rabbit, 1:400, Proteintech, 12229-1-AP), OPTN (mouse, 1:200, Santa Cruz, sc-166576), p62 (mouse, 1:400, BD Biosciences, 610832), pSer65-Ub (rabbit, 1:500, in-house (Fiesel et al., EMBO Reports (2015) 16:1114-30; Fiesel et al., (2015) Autophagy 11:2125-2126)), TAX1BP1 (rabbit, 1:200, Cell Signaling, #5105), TOM20 (mouse, 1:100, Santa Cruz, sc-17764), TOM20 (rabbit, 1:2000, Proteintech, 11802-1-AP). Secondary antibodies conjugated to AlexaFluor-568 or-647 (Invitrogen) were diluted 1:1000. Hoechst 33342 (Invitrogen) was diluted 1:5000 to counterstain the nuclei.
To validate the activation of Parkin further downstream in the pathway, co-recruitment of endogenous autophagy receptors to mitochondria in HeLa EGFP-Parkin cells was analyzed. These dual adaptors recognize pSer65-Ub chains on damaged mitochondria and facilitate their engulfment by autophagosomal membrane via their interaction with LC3 proteins (Lazarou et al., Nature (2015) 524:309-14; Heo et al., Mol. Cell (2015) 60:7-20).

Data set [4] has as its system wp2[pKM101]+wp2 uvrA mixed 1:2. The data set can be described thus: Ames Test, E. coli.
From the text: as §1, §2, §3, §4

The test system of data set [5] is HeLa cells. In words: Mitochondrial membrane potential (JC-10 assay). It counts as cell-based, human. The conditions noted are these: 5 μM, compared to DMSO control. How it is done: In order to exclude compounds that diminish the mitochondrial membrane potential, a JC-10 assay was used. HeLa cells were plated in 384-well plates and treated with different doses of CCCP or with 5 μM of Compounds 1, 2, 3, 4, and 31 as indicated for 2 h. The JC-10 dye was added to the live cells and cells are stained for 45 minutes. The plates were then measured with a fluorescent plate reader. JC-10 is a mitochondrial dye that emits red fluorescence in the presence of mitochondrial membrane potential. The fluorescence will change to green in the absence of mitochondrial membrane potential. […] Shown are average values of 3 independent experiments. Statistical analysis was performed by one-way ANOVA with Tukey's post-hoc test. ***, p<0.0005.
Mitochondrial depolarization was assessed using a JC10 assay kit (Sigma, MAK159). HeLa Parkin cells were seeded with […] in 20 μL volume into 384-well plates with clear bottom. The following day 5 μL of CCCP or compounds were added as 5× solutions. Equal volume of DMSO served as a negative control. Cells were incubated for 4 h before 12.5 μL of JC10 dye diluted in buffer A was added to the wells. One hour later the reaction was stopped with 12.5 μL of buffer B and the plate was measured immediately on a Spectramax M5 plate reader (Molecular devices) with bottom read using dual fluorescence (green: Ex 485 nm, Em 538 nm, cut-off at 515 nm; red: Ex 544 nm, Em 590 nm, cut-off at 570 nm). Mitochondrial depolarization was assessed by building the green to red ratio.

Data set [6] has as its system TA 1535.
From the text: as §1, §2, §3, §4

Where [7] appears, read: TA 98, 200 μM, baseline = mean of negative control + SD.
The mark [8] stands for this setting: 50 μM (row printed 100; conc. column shifted).
Setting [9] is: 100 μM (row printed 200; conc. column shifted).
The mark [10] stands for this setting: 200 μM (row printed 0; conc. column shifted).

Chain of hERG channel (Q12809 whole entry): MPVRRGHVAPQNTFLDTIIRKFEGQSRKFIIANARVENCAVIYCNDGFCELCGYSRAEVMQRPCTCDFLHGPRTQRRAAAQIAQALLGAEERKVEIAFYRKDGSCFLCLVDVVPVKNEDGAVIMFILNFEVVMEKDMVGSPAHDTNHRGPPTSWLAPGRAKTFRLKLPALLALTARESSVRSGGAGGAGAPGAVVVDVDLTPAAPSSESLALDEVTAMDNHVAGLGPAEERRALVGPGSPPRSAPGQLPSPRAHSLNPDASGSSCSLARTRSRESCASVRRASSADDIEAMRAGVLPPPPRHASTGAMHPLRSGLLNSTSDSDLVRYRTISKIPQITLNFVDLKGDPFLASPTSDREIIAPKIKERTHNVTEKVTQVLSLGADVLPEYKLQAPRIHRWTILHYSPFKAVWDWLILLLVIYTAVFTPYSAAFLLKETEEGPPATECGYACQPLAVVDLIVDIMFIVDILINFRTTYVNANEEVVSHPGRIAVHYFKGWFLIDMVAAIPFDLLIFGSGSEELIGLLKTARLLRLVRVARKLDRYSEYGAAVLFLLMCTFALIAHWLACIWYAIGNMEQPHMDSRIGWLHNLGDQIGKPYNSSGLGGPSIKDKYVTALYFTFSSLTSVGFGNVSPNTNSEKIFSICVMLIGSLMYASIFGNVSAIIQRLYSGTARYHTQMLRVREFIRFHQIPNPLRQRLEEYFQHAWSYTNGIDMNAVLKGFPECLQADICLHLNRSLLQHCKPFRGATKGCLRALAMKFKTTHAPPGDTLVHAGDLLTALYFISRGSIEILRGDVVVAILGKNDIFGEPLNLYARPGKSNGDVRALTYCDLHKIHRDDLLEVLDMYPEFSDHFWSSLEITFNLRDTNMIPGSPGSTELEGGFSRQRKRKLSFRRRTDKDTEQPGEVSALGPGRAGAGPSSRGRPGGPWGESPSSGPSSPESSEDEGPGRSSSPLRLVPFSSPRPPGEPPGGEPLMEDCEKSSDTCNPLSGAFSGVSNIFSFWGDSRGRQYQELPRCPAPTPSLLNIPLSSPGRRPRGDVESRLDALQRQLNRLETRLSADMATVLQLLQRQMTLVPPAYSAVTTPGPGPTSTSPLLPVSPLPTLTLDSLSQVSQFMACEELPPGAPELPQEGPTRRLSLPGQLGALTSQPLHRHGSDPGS

Take `O=C(Cn1ccnc1-c1ccccn1)Nc1ccc(-c2ccccc2)cc1` [Compound 4]: the “Binding values, % Mean” value in data set [1] (1 μM) was determined as 26%; in data set [1] (5 μM) it was 27%; in data set [1] (20 μM), 22%. Also, the “Fold increase (over baseline)” value in data set [2] (TA 98, 50 μM) came out at 0.46; in data set [2] (TA 98, 100 μM), 0; in data set [2] (setting [7]), 0; in data set [4] (setting [8]), 0.75; in data set [4] (setting [9]), 0.38; in data set [4] (setting [10]) it was 1.38. For the same compound, the “Fold increase (over baseline)” value in data set [6] (TA 1535, 50 μM) was 0.23; in data set [6] (TA 1535, 100 μM), 0.34; in data set [6] (TA 1535, 200 μM), 0. Moreover, the “Mean ± SD” value is listed as 1.5 ± 0.7 revertant colonies per plate in data set [2] (TA 98, 50 μM); 0 ± 0 revertant colonies per plate in data set [2] (TA 98, 100 μM); 0 ± 0 revertant colonies per plate in data set [2] (TA 98, 200 μM); 3 ± 1.41 revertant colonies per plate in data set [4] (setting [8]); 1.5 ± 0.7 revertant colonies per plate in data set [4] (setting [9]); 5.5 ± 2.12 revertant colonies per plate in data set [4] (setting [10]). The “Mean ± SD” value in data set [6] (TA 1535, 50 μM) is given as 1 ± 0 revertant colonies per plate; in data set [6] (TA 1535, 100 μM), 1.5 ± 0.7 revertant colonies per plate; in data set [6] (TA 1535, 200 μM), 0 ± 0 revertant colonies per plate. Moreover, the “co-localization of OPTN, NBR1, NDP52, p62 and TAX1BP1 with Parkin on damaged mitochondria” value in data set [3] is on record as “increased co-localization”. In addition, the “effect on JC-10 (mitochondrial depolarization)” value in data set [5] is “did not show an effect”.
In the case of `Cc1nc2c(c(N3CCCN(Cc4ccccc4)CC3)n1)CCCC2` [Compound 31], the “Binding values, % Mean” value came out at 45% in data set [1] (1 μM), 73% in data set [1] (5 μM) and 88% in data set [1] (20 μM). For the same compound, the “Fold increase (over baseline)” value amounted to 0.2 in data set [2] (TA 98, 50 μM); 0.3 in data set [2] (TA 98, 100 μM); 0.3 in data set [2] (setting [7]); 1.13 in data set [4] (setting [8]); 0.38 in data set [4] (setting [9]); 0 in data set [4] (setting [10]). In addition, the “Fold increase (over baseline)” value turned out to be 0.57 in data set [6] (TA 1535, 50 μM); 0.23 in data set [6] (TA 1535, 100 μM); 0.57 in data set [6] (TA 1535, 200 μM). In addition, the “Mean ± SD” value is listed as 0.5 ± 0.7 revertant colonies per plate in data set [2] (TA 98, 50 μM); 1 ± 0 revertant colonies per plate in data set [2] (TA 98, 100 μM); 1 ± 1.41 revertant colonies per plate in data set [2] (TA 98, 200 μM); 4.5 ± 3.53 revertant colonies per plate in data set [4] (setting [8]); 1.5 ± 0.7 revertant colonies per plate in data set [4] (setting [9]); 0 ± 0 revertant colonies per plate in data set [4] (setting [10]). For the same compound, the “Mean ± SD” value in data set [6] (TA 1535, 50 μM) is listed as 2.5 ± 2.12 revertant colonies per plate; in data set [6] (TA 1535, 100 μM), 1 ± 0 revertant colonies per plate; in data set [6] (TA 1535, 200 μM) it was 2.5 ± 0.7 revertant colonies per plate. In addition, the “co-localization of OPTN, NBR1, NDP52, p62 and TAX1BP1 with Parkin on damaged mitochondria” value in data set [3] is “increased co-localization”. In data set [5], the “effect on JC-10 (mitochondrial depolarization)” value was “significantly increased depolarization of mitochondria”.
